In ChEMBL document CHEMBL1201862, “PubChem BioAssay data set” (2004):
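Test compounds were applied to cells in 96-well plates for 48 hours at 5 doses. GI50: concentration for 50% inhibition of growth.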 Active and inactive are the calls of the source. No stated cut-off is given here; in the data, active = GI50 up to about 1.1 µM and inactive = higher.

Assays:
Assay in all cases: DTP human tumour cell line panel, 48 h
SF-539 = system: SF-539
MDA-MB-435 = system: MDA-MB-435
786-0 = system: 786-0
NCI-H460 = system: NCI-H460
CAKI-1 = system: CAKI-1
MDA-MB-231 = system: MDA-MB-231
BT-549 = system: BT-549
OVCAR-8 = system: OVCAR-8
SK-MEL-28 = system: SK-MEL-28
Malme-3M = system: Malme-3M
HCT-15 = system: HCT-15
SN12C = system: SN12C
OVCAR-3 = system: OVCAR-3
HOP-92 = system: HOP-92
SF-268 = system: SF-268
M14 = system: M14
UO-31 = system: UO-31
PC-3 = system: PC-3
CCRF-CEM = system: CCRF-CEM
MCF7 = system: MCF7

Compound | GI50 (SF-539) | GI50 (MDA-MB-435) | GI50 (786-0) | GI50 (NCI-H460) | GI50 (CAKI-1) | GI50 (MDA-MB-231) | GI50 (BT-549) | GI50 (OVCAR-8) | GI50 (SK-MEL-28) | GI50 (Malme-3M) | GI50 (HCT-15) [µM] | GI50 (SN12C) | GI50 (OVCAR-3) | GI50 (HOP-92) | GI50 (SF-268) | GI50 (M14) | GI50 (UO-31) | GI50 (PC-3) | GI50 (CCRF-CEM) | GI50 (MCF7)
Cn1c2ccccc2n2c(=O)c3cccnc3c(C#N)c12 | 66.4 µM (inactive) | > 100 µM (inactive) | > 100 µM (inactive) | 18.7 µM (inactive) | > 100 µM (inactive) | > 100 µM (inactive) | 17.5 µM (inactive) | 40.3 µM (inactive) | > 100 µM (inactive) | > 100 µM (inactive) | 37.8 | 25.5 µM (inactive) | > 100 µM (inactive) | > 100 µM (inactive) | > 100 µM (inactive) |  |  |  |  | 
Cc1sc2nc3n(c(=O)c2c1C)N=CN(c1ccc(Cl)cc1)C3 |  | > 100 µM (inactive) | > 100 µM (inactive) | > 100 µM (inactive) | > 100 µM (inactive) | > 100 µM (inactive) | > 100 µM (inactive) | > 100 µM (inactive) | > 100 µM (inactive) | 33.3 µM (inactive) | > 100 | > 100 µM (inactive) | > 100 µM (inactive) | > 100 µM (inactive) | 39.4 µM (inactive) | > 100 µM (inactive) | > 100 µM (inactive) | > 100 µM (inactive) | > 100 µM (inactive) | 
C/C=C1\CNC1C(=O)O (centres undefined) | > 100 µM (inactive) | > 100 µM (inactive) | > 100 µM (inactive) | > 100 µM (inactive) | > 100 µM (inactive) |  | > 100 µM (inactive) | > 100 µM (inactive) | > 100 µM (inactive) | > 100 µM (inactive) | > 100 | > 100 µM (inactive) | > 100 µM (inactive) | > 100 µM (inactive) | > 100 µM (inactive) |  | > 100 µM (inactive) | > 100 µM (inactive) | > 100 µM (inactive) | > 100 µM (inactive)
COC1(c2ccc(Cl)cc2)SC=C(C)n2c1noc2=O (centres undefined) |  | > 100 µM (inactive) | > 100 µM (inactive) | > 100 µM (inactive) | > 100 µM (inactive) |  | > 100 µM (inactive) |  | > 100 µM (inactive) | > 100 µM (inactive) | > 100 | > 100 µM (inactive) | 29.7 µM (inactive) | > 100 µM (inactive) | > 100 µM (inactive) | > 100 µM (inactive) | > 100 µM (inactive) | > 100 µM (inactive) | > 100 µM (inactive) | > 100 µM (inactive)
COc1ccc(C)cc1Nc1nnc(-c2ccc(N)cc2)s1 | > 100 µM (inactive) | 33.3 µM (inactive) | 70.1 µM (inactive) | 61.8 µM (inactive) | 73.3 µM (inactive) |  | > 100 µM (inactive) | 87.3 µM (inactive) | > 100 µM (inactive) | > 100 µM (inactive) | 69.2 | > 100 µM (inactive) | 73.6 µM (inactive) | > 100 µM (inactive) | > 100 µM (inactive) | > 100 µM (inactive) | 42 µM (inactive) | 96.4 µM (inactive) | 41 µM (inactive) | 46.3 µM (inactive)
Cn1c2ccccc2n2c3ncccc3c(=O)cc12 | 45.9 µM (inactive) | 61.5 µM (inactive) | 37.3 µM (inactive) | 33 µM (inactive) | 36.2 µM (inactive) | 96.8 µM (inactive) | 65.8 µM (inactive) | 46.3 µM (inactive) | > 100 µM (inactive) | 45 µM (inactive) | 31 | 44.7 µM (inactive) | 50.2 µM (inactive) | 54.5 µM (inactive) | 64.4 µM (inactive) | 64.3 µM (inactive) | 26.3 µM (inactive) |  |  | 
